{
  "source": "patent US20220380374A1",
  "about": "“1,4-DIHYDROBENZO[D]PYRAZOLO[3,4-F][1,3]DIAZEPINE DERIVATIVES AND RELATED COMPOUNDS AS LRRK2, NUAK1 AND/OR TYK2 KINASE MODULATORS FOR THE TREATMENT OF E.G. AUTOIMMUNE DISEASE” (Origenis GMBH, priority 2019, published 2022)",
  "key": {"[1]": {"biological_target": "T1, wt human TYK2, catalytic site (Homo sapiens, UniProt P29597)", "T1 construct": "2 nM wt human TYK2, catalytic site (SignalChem/CAN); purchased SignalChem/CAN", "T1 sequence (P29597 897-1176 limits assumed)": "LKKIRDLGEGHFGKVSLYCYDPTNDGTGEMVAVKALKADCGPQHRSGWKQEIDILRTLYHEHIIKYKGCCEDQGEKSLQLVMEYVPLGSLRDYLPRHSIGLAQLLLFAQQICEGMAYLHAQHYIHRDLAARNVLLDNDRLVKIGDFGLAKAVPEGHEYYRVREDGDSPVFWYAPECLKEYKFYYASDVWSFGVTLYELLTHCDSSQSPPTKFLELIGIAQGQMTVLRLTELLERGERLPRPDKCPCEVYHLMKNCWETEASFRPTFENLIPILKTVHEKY", "test": "HTRF KinEASE assay, TYK2", "assay_type": "biochemical", "settings": "1 μM ATP; read-out: IC50, inhibitory activity toward TYK2", "protocol": "Basic protocol for HTRF KinEASE assay (Cisbio/FRA) inhibitor studies involved two steps: Enzymatic step: Addition of 4 μl of test compound in corresponding DMSO dilutions, 4 μl of kinase/substrate mixture, 2 μl of ATP into 384 well small volume plates. Incubation for at least 30 minutes at room temperature.\nDetection step: Addition of 5 μl antibody and 5 μl streptavidin-XL665, read plate after 60 minutes. Data analysis of emission ratios according to KinEASE assay protocol.\nKinase and assay components were adjusted to final concentrations according to the kit protocol. For TYK2: 2 nM wt human TYK2, catalytic site (SignalChem/CAN), 1 μM HTRF KinEASE-TK Substrate-biotin, 1 μM ATP in 1× Kinase Buffer"}, "[2]": {"biological_target": "T2, wt human NUAK1, full length (Homo sapiens, UniProt O60285)", "T2 construct": "8 nM wt human NUAK1, full length (ThermoFisher/USA); purchased ThermoFisher/USA", "T2 sequence (O60285 1-661)": "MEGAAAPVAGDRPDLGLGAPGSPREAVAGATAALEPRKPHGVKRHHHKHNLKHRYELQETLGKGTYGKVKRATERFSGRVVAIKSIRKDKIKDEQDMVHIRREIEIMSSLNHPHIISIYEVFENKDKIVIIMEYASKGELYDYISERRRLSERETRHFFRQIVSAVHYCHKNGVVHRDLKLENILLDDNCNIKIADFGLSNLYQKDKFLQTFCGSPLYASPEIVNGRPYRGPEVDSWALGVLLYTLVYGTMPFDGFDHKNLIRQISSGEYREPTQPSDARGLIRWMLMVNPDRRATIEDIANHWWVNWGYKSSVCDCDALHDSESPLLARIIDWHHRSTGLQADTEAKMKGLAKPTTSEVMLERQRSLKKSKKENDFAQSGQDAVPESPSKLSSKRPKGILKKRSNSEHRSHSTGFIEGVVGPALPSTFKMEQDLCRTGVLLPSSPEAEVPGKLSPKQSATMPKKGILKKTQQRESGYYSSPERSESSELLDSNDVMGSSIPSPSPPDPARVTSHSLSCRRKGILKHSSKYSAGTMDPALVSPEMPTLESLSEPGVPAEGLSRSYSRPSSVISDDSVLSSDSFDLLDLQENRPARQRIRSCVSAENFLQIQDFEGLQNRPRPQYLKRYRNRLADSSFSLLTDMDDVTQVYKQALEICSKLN", "test": "TR-FRET LanthaScreen Eu Kinase Binding Assay, NUAK1", "settings": "5 nM Kinase Tracer 236; read-out: IC50, inhibitory activity toward NUAK1", "how_it_was_run": "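TR-FRET tracer-displacement binding with 8 nM full-length wild-type human NUAK1, 2 nM Eu-anti-His antibody and 5 nM Kinase Tracer 236 in 1× Kinase Buffer A (final). Compound, kinase/antibody and tracer incubated 1 h at room temperature; emission ratios analysed per kit protocol.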"}},
  "note": "pIC50: −log10 of the molar value.",
  "data": [
    {"compound": "Fc1cccc(Cl)c1C1=Nc2ccccc2-c2[nH]ncc2N1", "note": "[Compound 27, 5-(2-chloro-6-fluorophenyl)-1,4-dihydrobenzo[d]pyrazolo[3,4-f][1,3]diazepine]", "values": [
      {"measurement": "pIC50", "setting": "[1]", "value": "7.00 to 8.00"},
      {"measurement": "pIC50", "setting": "[2]", "value": "7.00 to 8.00"}
    ]},
    {"compound": "Fc1ccc(-c2ccc3c(c2)N=C(c2c(Cl)cccc2Cl)Nc2c[nH]nc2-3)cc1", "note": "[Compound 242, 5-(2,6-dichlorophenyl)-8-(4-fluorophenyl)-2,4-dihydrobenzo[d]pyrazolo[3,4-f][1,3]diazepine]", "values": [
      {"measurement": "pIC50", "setting": "[1]", "value": "> 8.00"},
      {"measurement": "pIC50", "setting": "[2]", "value": "7.00 to 8.00"}
    ]},
    {"compound": "Cc1ccc2c(c1)-c1[nH]ncc1NC(c1c(Cl)ccc(F)c1F)=N2", "note": "[Compound 186, 5-(6-chloro-2,3-difluorophenyl)-9-methyl-1,4-dihydrobenzo[d]pyrazolo[3,4-f][1,3]diazepine]", "values": [
      {"measurement": "pIC50", "setting": "[1]", "value": "6.00 to 7.00"},
      {"measurement": "pIC50", "setting": "[2]", "value": "7.00 to 8.00"}
    ]},
    {"compound": "CC(C)(O)c1ccc2c(c1)NC(c1c(F)cccc1F)=Nc1cn[nH]c1-2", "note": "[Compound 98, 2-(5-(2,6-difluorophenyl)-1,6-dihydrobenzo[d]pyrazolo[3,4-f][1,3]diazepin-8-yl)propan-2-ol]", "values": [
      {"measurement": "pIC50", "setting": "[1]", "value": "7.00 to 8.00"},
      {"measurement": "pIC50", "setting": "[2]", "value": "7.00 to 8.00"}
    ]},
    {"compound": "Cc1ccc2c(c1)-c1[nH]ncc1NC(c1c(F)cccc1I)=N2", "note": "[Compound 163, 5-(2-fluoro-6-iodophenyl)-9-methyl-1,4-dihydrobenzo[d]pyrazolo[3,4-f][1,3]diazepine]", "values": [
      {"measurement": "pIC50", "setting": "[1]", "value": "6.00 to 7.00"},
      {"measurement": "pIC50", "setting": "[2]", "value": "6.00 to 7.00"}
    ]},
    {"compound": "Fc1cccc(F)c1C1=Nc2cn[nH]c2-c2cn[nH]c2N1", "note": "[Compound 72, 5-(2,6-difluorophenyl)-6,7-dihydro-1H-dipyrazolo[3,4-d:3′,4′-f][1,3]diazepine]", "values": [
      {"measurement": "pIC50", "setting": "[1]", "value": "7.00 to 8.00"},
      {"measurement": "pIC50", "setting": "[2]", "value": "7.00 to 8.00"}
    ]},
    {"compound": "CC(=O)Nc1cccc(-c2ccc3c(c2)N=C(c2c(F)cccc2F)Nc2cn[nH]c2-3)c1", "note": "[Compound 162, N-(3-(5-(2,6-difluorophenyl)-1,4-dihydrobenzo[d]pyrazolo[3,4-f][1,3]diazepin-8-yl)phenyl)acetamide]", "values": [
      {"measurement": "pIC50", "setting": "[1]", "value": "> 8.00"},
      {"measurement": "pIC50", "setting": "[2]", "value": "7.00 to 8.00"}
    ]},
    {"compound": "CCNC(=O)c1cc2c(cc1Cl)-c1n[nH]cc1N=C(c1c(F)cccc1F)N2", "note": "[Compound 200, 9-chloro-5-(2,6-difluorophenyl)-N-ethyl-2,6-dihydrobenzo[d]pyrazolo[3,4-f][1,3]diazepine-8-carboxamide]", "values": [
      {"measurement": "pIC50", "setting": "[1]", "value": "7.00 to 8.00"},
      {"measurement": "pIC50", "setting": "[2]", "value": "7.00 to 8.00"}
    ]},
    {"compound": "Nc1ccc2c(c1)-c1[nH]ncc1N=C(c1c(F)cccc1F)N2", "note": "[Compound 103, 5-(2,6-difluorophenyl)-1,6-dihydrobenzo[d]pyrazolo[3,4-f][1,3]diazepin-9-amine]", "values": [
      {"measurement": "pIC50", "setting": "[1]", "value": "6.00 to 7.00"},
      {"measurement": "pIC50", "setting": "[2]", "value": "7.00 to 8.00"}
    ]},
    {"compound": "Nc1ncc2c(n1)N=C(c1c(F)cccc1F)Nc1c[nH]nc1-2", "note": "[Compound 218, 5-(2,6-difluorophenyl)-2,4-dihydropyrazolo[4,3-d]pyrimido[5,4-f][1,3]diazepin-8-amine]", "values": [
      {"measurement": "pIC50", "setting": "[1]", "value": "7.00 to 8.00"},
      {"measurement": "pIC50", "setting": "[2]", "value": "7.00 to 8.00"}
    ]},
    {"compound": "Fc1cccc(F)c1C1=Nc2cn[nH]c2-c2cc(Cl)cnc2N1", "note": "[Compound 64, 9-chloro-5-(2,6-difluorophenyl)-1,6-dihydropyrazolo[4,3-d]pyrido[3,2-f][1,3]diazepine]", "values": [
      {"measurement": "pIC50", "setting": "[1]", "value": "6.00 to 7.00"},
      {"measurement": "pIC50", "setting": "[2]", "value": "7.00 to 8.00"}
    ]},
    {"compound": "Fc1cccc(F)c1C1=Nc2cn[nH]c2-c2ccccc2N1", "note": "[Compound 8, 5-(2,6-difluorophenyl)-1,6-dihydrobenzo[d]pyrazolo[3,4-f][1,3]diazepine]", "values": [
      {"measurement": "pIC50", "setting": "[1]", "value": "7.00 to 8.00"},
      {"measurement": "pIC50", "setting": "[2]", "value": "6.00 to 7.00"}
    ]},
    {"compound": "NC(=O)c1ccc2c(c1)-c1[nH]ncc1NC(c1c(F)cccc1F)=N2", "note": "[Compound 93, 5-(2,6-difluorophenyl)-1,4-dihydrobenzo[d]pyrazolo[3,4-f][1,3]diazepine-9-carboxamide]", "values": [
      {"measurement": "pIC50", "setting": "[1]", "value": "6.00 to 7.00"},
      {"measurement": "pIC50", "setting": "[2]", "value": "7.00 to 8.00"}
    ]},
    {"compound": "Fc1cccc(F)c1C1=Nc2cnccc2-c2[nH]ncc2N1", "note": "[Compound 71, 5-(2,6-difluorophenyl)-1,4-dihydropyrazolo[4,3-d]pyrido[4,3-f][1,3]diazepine]", "values": [
      {"measurement": "pIC50", "setting": "[1]", "value": "7.00 to 8.00"},
      {"measurement": "pIC50", "setting": "[2]", "value": "> 8.00"}
    ]},
    {"compound": "O=C(O)c1cc2c(cc1Cl)-c1[nH]ncc1N=C(c1c(F)cccc1F)N2", "note": "[Compound 198, 9-chloro-5-(2,6-difluorophenyl)-1,6-dihydrobenzo[d]pyrazolo[3,4-f][1,3]diazepine-8-carboxylic acid]", "values": [
      {"measurement": "pIC50", "setting": "[1]", "value": "7.00 to 8.00"},
      {"measurement": "pIC50", "setting": "[2]", "value": "6.00 to 7.00"}
    ]}
  ]
}
